Experimental data reported in ChEMBL document CHEMBL1201862, “PubChem BioAssay data set” (2004).
Values belong to the compound of their own block, whether it stands above or below them. Calls of active or inactive are those of the source.

What was measured:
[1] = biological target: FAD-linked sulfhydryl oxidase ALR (Homo sapiens, UniProt P55789); test: inhibitors of human ALR sulfhydryl oxidase, dose response, biochemical, H2O2 detection, luminescence, cherry-pick (AID 493248)
[2] = biological target: T1, Corticotropin-releasing factor receptor 2/Corticotropin-releasing factor-binding protein (Homo sapiens, UniProt P24387+Q13324); test: Dose Response confirmation of uHTS hits for small molecule antagonists of the CRF-binding protein and CRF-R2 receptor complex.; type: functional; details: read-out: IC50_Mean
T1 sequence (Q13324 whole entry): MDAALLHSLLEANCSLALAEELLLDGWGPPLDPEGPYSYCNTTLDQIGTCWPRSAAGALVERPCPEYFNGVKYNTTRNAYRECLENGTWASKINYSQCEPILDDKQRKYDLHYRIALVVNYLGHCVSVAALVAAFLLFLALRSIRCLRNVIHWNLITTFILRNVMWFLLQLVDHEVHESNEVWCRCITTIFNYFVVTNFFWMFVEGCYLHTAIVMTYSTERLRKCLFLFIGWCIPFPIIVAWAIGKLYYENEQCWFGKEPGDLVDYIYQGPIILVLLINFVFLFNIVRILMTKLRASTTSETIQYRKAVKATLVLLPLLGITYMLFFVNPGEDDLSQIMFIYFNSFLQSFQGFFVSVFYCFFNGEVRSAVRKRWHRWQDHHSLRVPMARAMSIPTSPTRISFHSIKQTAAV
T1 sequence (P24387 whole entry): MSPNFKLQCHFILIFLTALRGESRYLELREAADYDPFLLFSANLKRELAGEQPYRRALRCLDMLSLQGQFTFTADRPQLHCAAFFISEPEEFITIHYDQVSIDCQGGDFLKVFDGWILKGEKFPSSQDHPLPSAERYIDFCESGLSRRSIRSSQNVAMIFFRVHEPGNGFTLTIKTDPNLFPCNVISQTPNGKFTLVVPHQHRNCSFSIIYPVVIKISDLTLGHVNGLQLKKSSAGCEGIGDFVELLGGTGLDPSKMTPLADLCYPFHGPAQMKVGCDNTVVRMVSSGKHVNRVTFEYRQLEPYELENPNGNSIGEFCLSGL

[3] = biological target: T1, Corticotropin-releasing factor receptor 2/Corticotropin-releasing factor-binding protein; test: activators of CRF receptor 2 with binding protein – uHTS hits, confirmation (AID 602473); type: functional; details: read-out: EC50_Mean
[4] = HEp-2 cell cytotoxicity, dose response, cytotoxicity control for RSV inhibitor project, HTS (AID 2410); type: functional; details: human respiratory syncytial virus
[5] = NIH-3T3 fibroblast cytotoxicity, dose response, cytotoxicity control, cell-based, fluorescence, Alamar Blue, secondary assay (AID 2327); type: functional;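 further: NIH-3T3 mouse fibroblasts cultured with fluconazole at 8 µg/mL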
[6] = C. albicans growth with fluconazole, confirmation, fluorescence, retest (AID 2467); type: functional, cell-based
[7] = biological target: T2, Rac GTPase-activating protein 1 (Homo sapiens, UniProt Q9H0H5); test: MgcRacGAP GTPase-activating activity inhibitors, confirmation, biochemical, ADP Hunter fluorescence, primary and confirmatory (AID 624330); type: functional
T2 sequence (Q9H0H5 whole entry): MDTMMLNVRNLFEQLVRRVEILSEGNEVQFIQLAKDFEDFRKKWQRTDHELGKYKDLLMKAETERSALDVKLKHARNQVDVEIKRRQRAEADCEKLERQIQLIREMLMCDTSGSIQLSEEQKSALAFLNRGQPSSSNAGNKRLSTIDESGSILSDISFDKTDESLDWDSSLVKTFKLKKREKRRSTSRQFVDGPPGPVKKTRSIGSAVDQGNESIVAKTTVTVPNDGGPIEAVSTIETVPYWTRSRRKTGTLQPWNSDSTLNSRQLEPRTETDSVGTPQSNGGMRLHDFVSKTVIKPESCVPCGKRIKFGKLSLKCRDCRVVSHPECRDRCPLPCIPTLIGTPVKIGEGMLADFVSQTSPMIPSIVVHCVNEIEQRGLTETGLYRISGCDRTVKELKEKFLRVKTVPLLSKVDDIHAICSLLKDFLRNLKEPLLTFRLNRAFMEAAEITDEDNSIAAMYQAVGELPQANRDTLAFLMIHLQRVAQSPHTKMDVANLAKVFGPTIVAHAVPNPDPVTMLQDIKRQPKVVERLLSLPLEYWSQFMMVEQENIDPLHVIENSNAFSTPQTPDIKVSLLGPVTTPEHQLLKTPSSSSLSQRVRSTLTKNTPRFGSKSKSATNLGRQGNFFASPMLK

[8] = biological target: Cytochrome P450 2C9 (Homo sapiens, UniProt P11712)
[9] = biological target: T3, Cytochrome P450 1A2 (Homo sapiens, UniProt P05177);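 further: PubChem cytochrome P450 panel assay, CYP1A2 panel member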
T3 sequence (P05177 whole entry): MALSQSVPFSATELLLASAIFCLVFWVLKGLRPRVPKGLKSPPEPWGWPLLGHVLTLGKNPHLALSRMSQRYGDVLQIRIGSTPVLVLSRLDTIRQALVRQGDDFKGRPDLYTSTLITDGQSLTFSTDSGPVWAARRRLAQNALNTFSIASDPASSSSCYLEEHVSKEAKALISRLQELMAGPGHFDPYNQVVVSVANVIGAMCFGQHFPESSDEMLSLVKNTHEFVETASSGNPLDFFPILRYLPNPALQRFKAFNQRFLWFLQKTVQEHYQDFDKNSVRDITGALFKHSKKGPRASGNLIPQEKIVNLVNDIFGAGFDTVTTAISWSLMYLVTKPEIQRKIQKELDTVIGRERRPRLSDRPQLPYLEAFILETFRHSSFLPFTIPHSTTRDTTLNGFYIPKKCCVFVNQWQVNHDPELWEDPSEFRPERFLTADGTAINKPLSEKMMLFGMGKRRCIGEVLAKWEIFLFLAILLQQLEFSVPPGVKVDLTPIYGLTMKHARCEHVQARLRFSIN

[10] = biological target: Cytochrome P450 3A4 (Homo sapiens, UniProt P08684);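 further: CYP3A4 tested as one member of a cytochrome P450 panel screen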
[11] = biological target: Cytochrome P450 2D6 (Homo sapiens, UniProt P10635);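 further: CYP2D6 member of a cytochrome P450 panel assay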
[12] = biological target: Paired box protein Pax-8 (Homo sapiens, UniProt Q06710); test: inhibitors of PAX8-driven TPO luciferase reporter, dose response, RMG-I cells, cherry-pick (AID 687027); type: functional, cell-based;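 further: luciferase reporter driven by Pax8 target thyroperoxidase promoter measured by SteadyGlo luminescence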
[13] = biological target: Cytochrome P450 2C19 (Homo sapiens, UniProt P33261); test: Cytochrome panel assay with activity outcomes. Panel member name: p450-cyp2c19 Compounds with AC50 equal or less than 10 uM are considered active; type: functional
[14] = biological target: Luciferin 4-monooxygenase (Photinus pyralis, UniProt P08659); test: firefly luciferase enzyme inhibitors, dose response, biochemical, luminescence (AID 1891)
[15] = Luminescence Cell-Based Dose Confirmation HTS to Identify Inhibitors of Platelet Dense Granule Release. [Related pubchem assays: 1663 (Primary HTS), 1678 (Summary of Project)]; type: functional

Cytochrome P450 2C19, sequence (P33261 whole entry): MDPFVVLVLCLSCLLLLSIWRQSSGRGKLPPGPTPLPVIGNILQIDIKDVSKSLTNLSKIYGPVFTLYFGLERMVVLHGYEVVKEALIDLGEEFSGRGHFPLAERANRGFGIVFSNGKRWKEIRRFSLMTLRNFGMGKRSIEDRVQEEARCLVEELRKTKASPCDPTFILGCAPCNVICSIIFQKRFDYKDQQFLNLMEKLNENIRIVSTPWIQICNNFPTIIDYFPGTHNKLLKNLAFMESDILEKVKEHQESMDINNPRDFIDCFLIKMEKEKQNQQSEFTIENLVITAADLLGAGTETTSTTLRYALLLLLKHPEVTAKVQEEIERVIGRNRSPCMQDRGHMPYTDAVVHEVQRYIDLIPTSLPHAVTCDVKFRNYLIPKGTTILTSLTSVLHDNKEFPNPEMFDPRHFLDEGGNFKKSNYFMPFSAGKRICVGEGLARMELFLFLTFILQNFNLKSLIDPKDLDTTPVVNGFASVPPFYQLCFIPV
FAD-linked sulfhydryl oxidase ALR, sequence (P55789 whole entry): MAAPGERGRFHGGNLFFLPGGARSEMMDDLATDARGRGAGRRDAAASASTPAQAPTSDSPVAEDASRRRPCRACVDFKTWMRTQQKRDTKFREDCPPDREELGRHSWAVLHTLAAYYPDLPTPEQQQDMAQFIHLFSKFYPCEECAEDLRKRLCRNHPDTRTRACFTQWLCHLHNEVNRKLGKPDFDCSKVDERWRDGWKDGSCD
Cytochrome P450 3A4, sequence (P08684 whole entry): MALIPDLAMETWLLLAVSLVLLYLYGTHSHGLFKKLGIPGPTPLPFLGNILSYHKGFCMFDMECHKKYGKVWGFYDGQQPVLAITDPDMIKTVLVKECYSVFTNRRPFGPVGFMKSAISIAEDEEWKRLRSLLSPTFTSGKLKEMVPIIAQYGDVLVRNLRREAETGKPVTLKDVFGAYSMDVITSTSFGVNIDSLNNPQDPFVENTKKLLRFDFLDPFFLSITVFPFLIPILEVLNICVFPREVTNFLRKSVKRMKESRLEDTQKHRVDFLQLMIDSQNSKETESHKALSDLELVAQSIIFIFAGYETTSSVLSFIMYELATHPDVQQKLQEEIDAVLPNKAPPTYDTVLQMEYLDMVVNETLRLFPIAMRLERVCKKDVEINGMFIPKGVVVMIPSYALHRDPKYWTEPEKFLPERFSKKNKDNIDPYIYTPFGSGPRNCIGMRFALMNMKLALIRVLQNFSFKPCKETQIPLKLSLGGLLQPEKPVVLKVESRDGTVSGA
Cytochrome P450 2C9, sequence (P11712 whole entry): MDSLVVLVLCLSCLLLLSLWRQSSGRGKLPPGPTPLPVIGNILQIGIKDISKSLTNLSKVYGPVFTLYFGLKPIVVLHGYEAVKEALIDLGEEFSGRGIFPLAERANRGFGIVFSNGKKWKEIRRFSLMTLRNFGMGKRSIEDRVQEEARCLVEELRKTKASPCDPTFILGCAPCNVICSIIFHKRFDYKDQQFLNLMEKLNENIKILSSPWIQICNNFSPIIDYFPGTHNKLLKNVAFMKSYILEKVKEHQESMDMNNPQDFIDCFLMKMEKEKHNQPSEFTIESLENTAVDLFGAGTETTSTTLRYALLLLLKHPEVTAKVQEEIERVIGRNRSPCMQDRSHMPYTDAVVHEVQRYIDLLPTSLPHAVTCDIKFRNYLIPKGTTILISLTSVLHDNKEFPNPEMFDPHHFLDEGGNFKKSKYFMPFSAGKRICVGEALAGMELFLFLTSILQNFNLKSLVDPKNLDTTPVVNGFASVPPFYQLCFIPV
Cytochrome P450 2D6, sequence (P10635 whole entry): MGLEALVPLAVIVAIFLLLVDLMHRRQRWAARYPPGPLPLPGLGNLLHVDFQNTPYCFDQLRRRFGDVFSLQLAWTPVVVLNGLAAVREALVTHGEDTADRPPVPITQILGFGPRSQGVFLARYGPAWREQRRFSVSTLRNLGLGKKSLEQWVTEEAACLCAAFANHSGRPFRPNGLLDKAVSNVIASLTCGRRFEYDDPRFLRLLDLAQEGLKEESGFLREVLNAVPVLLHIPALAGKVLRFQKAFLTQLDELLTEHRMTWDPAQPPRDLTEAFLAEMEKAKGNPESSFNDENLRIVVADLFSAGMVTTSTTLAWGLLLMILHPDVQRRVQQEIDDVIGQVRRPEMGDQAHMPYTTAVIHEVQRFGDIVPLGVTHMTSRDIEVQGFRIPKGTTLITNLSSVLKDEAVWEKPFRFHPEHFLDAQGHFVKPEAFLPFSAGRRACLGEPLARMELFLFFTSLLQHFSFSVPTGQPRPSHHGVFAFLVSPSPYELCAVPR
Paired box protein Pax-8, sequence (Q06710 whole entry): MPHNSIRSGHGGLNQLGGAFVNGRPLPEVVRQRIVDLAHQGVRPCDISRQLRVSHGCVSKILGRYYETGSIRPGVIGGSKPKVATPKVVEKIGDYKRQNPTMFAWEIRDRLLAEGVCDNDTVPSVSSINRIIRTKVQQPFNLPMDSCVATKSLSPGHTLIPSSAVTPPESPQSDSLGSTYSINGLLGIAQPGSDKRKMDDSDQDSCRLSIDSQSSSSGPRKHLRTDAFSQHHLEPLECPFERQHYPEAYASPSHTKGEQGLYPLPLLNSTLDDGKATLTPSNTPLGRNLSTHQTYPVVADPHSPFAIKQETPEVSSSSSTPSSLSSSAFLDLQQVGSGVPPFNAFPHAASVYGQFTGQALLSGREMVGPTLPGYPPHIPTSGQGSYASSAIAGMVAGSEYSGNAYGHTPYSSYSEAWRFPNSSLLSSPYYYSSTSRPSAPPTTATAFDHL
Luciferin 4-monooxygenase, sequence (P08659 whole entry): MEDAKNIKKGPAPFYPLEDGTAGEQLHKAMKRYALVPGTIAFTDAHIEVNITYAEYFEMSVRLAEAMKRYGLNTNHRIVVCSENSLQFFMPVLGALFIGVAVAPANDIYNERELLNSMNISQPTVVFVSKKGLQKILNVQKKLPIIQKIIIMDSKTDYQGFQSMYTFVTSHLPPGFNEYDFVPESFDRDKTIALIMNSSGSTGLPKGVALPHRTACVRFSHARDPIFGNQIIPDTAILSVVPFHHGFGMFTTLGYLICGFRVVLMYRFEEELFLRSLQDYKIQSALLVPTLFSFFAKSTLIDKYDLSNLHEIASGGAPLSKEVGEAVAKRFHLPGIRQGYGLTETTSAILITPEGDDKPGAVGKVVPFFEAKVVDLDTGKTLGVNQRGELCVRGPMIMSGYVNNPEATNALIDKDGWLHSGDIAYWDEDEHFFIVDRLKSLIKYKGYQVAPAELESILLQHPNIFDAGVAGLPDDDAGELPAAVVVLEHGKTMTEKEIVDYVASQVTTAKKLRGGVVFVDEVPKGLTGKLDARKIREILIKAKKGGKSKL

- AC50 [1]: 4.59 µM (active)
SMILES: COc1cc(CNc2ncc(-c3ccc(Cl)cc3)n2C)cc(OC)c1OC

- IC50 [2]: > 47.1 µM (inactive)
- EC50 [3]: > 53 µM (inactive)
SMILES: CCOc1ccc(NC(=O)CSc2ccc3nnc(-c4cccnc4)n3n2)cc1

- IC50 [2]: > 47.1 µM (inactive)
- EC50 [3]: > 53 µM (inactive)
SMILES: COc1ccc2oc(C(=O)NCCC(C)C)c(C)c2c1

- IC50 [7]: 26.8 µM (active)
- AC50 [1]: 3.13 µM (active)
SMILES: CC(C)(C)N1C(=O)c2ccc(C(=O)Nc3ccc(O)cc3)cc2C1=O

- IC50 [2]: > 47.1 µM (inactive)
- EC50 [3]: > 53 µM (inactive)
SMILES: CC(C)N1CCN(Cc2nc(-c3ccccc3)cs2)CC1CCO (stereo unspecified)

- AC50 [8]: 12.6 µM (inconclusive)
- AC50 [9]: 39.8 µM (inconclusive)
- AC50 [10]: 3.16 µM (inconclusive)
SMILES: O=C(CSc1nncn1-c1ccccc1)Nc1ccc(N2CCOCC2)cc1

- AC50 [12]: 15.9 µM (active)
SMILES: O=C(C[C@@H]1C[C@H]2c3cc(NC(=O)Nc4ccc(C(F)(F)F)cc4)ccc3O[C@H]2[C@H](CO)O1)NCCc1ccccc1

- AC50 [1]: 4.1 µM (active)
SMILES: COc1cccc(N2CCN(CC(=O)NCc3cccs3)CC2)c1

- AC50 [10]: 15.8 µM (inconclusive)
- AC50 [13]: inconclusive
SMILES: Cc1ccc(NC(=O)CCc2c(C)nc3ncnn3c2C)nc1

- AC50 [10]: 17.8 µM (inconclusive)
- AC50 ([13]; read-out: AC50): 22.4 µM (inconclusive)
SMILES: COc1cc(C(=O)N2CCC(NC(=O)C(Cc3ccc(C(C)C)cc3)NC(C)=O)CC2)cc(OC)c1OC (stereo unspecified)

Second part, the compound before the results:

SMILES: CCC(CO)Nc1nc2ccc(Cl)cc2c2ccccc12 (stereo unspecified)
- CC50 [4]: 14.5 µM (active)

SMILES: Cc1nc(Nc2ccccc2Cl)sc1C(=O)Nc1ccccc1
- EC50 [5]: 28.6 µM (active)
- EC50 [6]: > 38 µM (not active)

SMILES: COc1ccc(CNc2ncnc3ccc(-c4ccc5c(c4)OCO5)cc23)c(OC)c1
- AC50 [11]: 2.51 µM (active)
- AC50 [10]: 0.794 µM (active)

SMILES: CC(C)NC(=O)COC(=O)c1cccc(NS(=O)(=O)/C=C/c2ccccc2)c1
- EC50 [5]: > 160 µM (inactive)

SMILES: CCOC(=O)c1[nH]c(C)c(C(=O)N2CCN(c3cccc(Cl)c3)CC2)c1C
- CC50 [4]: 20.9 µM (active)

SMILES: COc1ccc(-n2c(=O)cnc3cnc(N(C)C)nc32)cc1
- AC50 [10]: 39.8 µM (inconclusive)
- AC50 ([13]; read-out: AC50): 39.8 µM (inconclusive)

SMILES: CCCn1c(C(C)Nc2nc(-c3ccc(Cl)c([N+](=O)[O-])c3)cs2)nc2ccccc21 (stereo unspecified)
- CC50 [4]: 29.7 µM (active)

SMILES: Nc1ccc(C(=O)c2cccs2)cc1[N+](=O)[O-]
- CC50 [4]: 36.8 µM (active)

SMILES: CCCOc1cccc(-c2cc(C(=O)NN=C(S)NCC)c3ccccc3n2)c1
- EC50 [5]: > 160 µM (inactive)
- EC50 [14]: 1.41 µM (active)
- EC50 [6]: > 38 µM (not active)
- EC50 [15]: > 112 µM (not active)

SMILES: Cc1nc2cnc(N3CCOCC3)nc2n(Cc2cccs2)c1=O
- AC50 [11]: 39.8 µM (inconclusive)
- AC50 [8]: 15.8 µM (inconclusive)
- AC50 [10]: 7.94 µM (inconclusive)
